Data set [1] concerns EGFR expressing cells (HeLa). In kind it is cell-based. Conditions: HeLa; + 5 pM EGFdianthin; read-out: IC50 endosomal escape enhancing activity.
A further data set has as its system A431 cells. Nature of the data set: cells. The data set is classed as cell-based. Conditions: Homo sapiens. As for the experimental part: (§1) (FIGS. 66a and 66B). Next toxicity was determined, for this the modified saponins were titrated on HeLa and A431 cells. […] Next toxicity was determined, for this the modified saponins were titrated on HeLa and A431 cells.

For data set [2], the system named is HeLa cells. Nature of the data set: cells. The data set is classed as cell-based. As for the experimental part:
as §1

The test system of a further data set is human red blood cells. Nature of the data set: cells. Conditions: Homo sapiens, Erythrocyte. In kind it is cell-based. As for the experimental part: Red blood cells (RBCs) were isolated from a buffy coat using a Ficoll gradient. The obtained RBC pellet (˜4-5 ml) was washed 2× with 50 ml DPBS (without Ca^2+/Mg^2+, PAN-Biotech GmbH). Cells were pelleted by centrifugation for 10 min, 800×g at RT. RBC were counted and resuspended at 500.000.000 c/ml in DPBS (without Ca^2+/Mg^2+), based on total cell count.
Saponin dilutions were prepared in DPBS (with Ca^2+/Mg^2+, PAN-Biotech GmbH), at 1.11× final strength. For positive lysis control a 0.02% Triton-X100 solution was prepared in DPBS^+/+. Of all compound solutions 135 μl was dispensed/well in a 96 well V-bottom plate. To this 15 μl RBC suspension was added and mixed shortly (10 sec-600 rpm). The plate was incubated 30 min at RT, with gentle agitation. Afterwards the plate was spun for 10 min at 800×g to pellet the RBC and 100-120 μl supernatant was transferred to a standard 96 wp (96 well-plate).
Saponin dilutions were prepared in DPBS (with Ca^2+/Mg^2+, PAN-Biotech GmbH), at 1.11× final strength. For positive lysis control a 0.02% Triton-X100 solution was prepared in DPBS+/+. Of all compound solutions 135 μl was dispensed/well in a 96 well V-bottom plate. To this 15 μl RBC suspension was added and mixed shortly (10 sec-600 rpm). The plate was incubated 30 min at RT, with gentle agitation. Afterwards the plate was spun for 10 min at 800×g to pellet the RBC and 100-120 μl supernatant was transferred to a standard 96 wp (96 well-plate).

A short description of data set [3]: Critical micellar concentration (CMC) by ANS fluorescence. In kind it is physicochemical. Conditions: for CMC value: PBS. Put shortly: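 Saponin solutions (dry-weight concentrations 1–1400 μM) in purified water or Dulbecco's PBS+/+ were mixed with ANS, 75.86 μM, 6 μg per sample. ANS fluorescence was read at 355 nm excitation and 460 nm emission. CMC was taken from the rise in ANS fluorescence yield as the dye partitions into micelles.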

The subject of data set [4] is HeLa cells. Nature of the data set: Pilot cell-based bioassay: 10 μg/ml saponin with or without 1.5 pM dianthin-EGF, 72 h, relative cell viability. The arrangement: key to Cell killing activity (+ or −): Cell killing activity (+ or −); Cell killing activity (+ or −). The settings on record: for Cell viability after 72 h: 10 microgram/ml saponin + […] dianthin-EGF, HeLa cells. As to the method:
HeLa cells were incubated for 72 h with the following constructs and cell viability before and after the 72 h-incubation was assessed. In the experiments, cells were exposed to 1.5 pM dianthin-EGF conjugate. A negative control were cells incubated with buffer vehicle and 10 microgram/ml saponin, without dianthin-EGF. Cell viability was set to 100% for the control in which both saponin and EGF-dianthin were omitted. […] Cell viability after 72 h was essentially 0%. For the chemically modified saponin variants, 10 microgram/ml saponin was tested in combination with 1.5 pM dianthin-EGF.

Data set [5] relates to EGFR expressing cells (A431). Nature of the data set: Saponin titration on fixed 10 pM cetuximab-saporin, cell viability (MTS). In kind it is cell-based. Conditions: without cetuximab-saporin.
The test system of data set [6] is EGFR expressing cells (A431). In words: Saponin titration on fixed 10 pM EGFdianthin, cell viability (MTS). Conditions: without EGFdianthin. The data set is classed as cell-based.
The test system of data set [7] is HSP27 mRNA. Nature of the data set: HSP27 mRNA gene silencing analysis in A431 cells. In kind it is cell-based. Conditions: SO1861-Ald-EMCH alone. The source says:
(§2) RNA from cells was isolated and analysed according to standard protocols (Biorad). qPCR primers that were used are indicated in Table A10.

Another data set concerns HeLa (EGFR+) cells. In words: Saponin titration in presence and absence of […] EGFdianthin, cell viability. In kind it is cell-based. As for the experimental part: To extend this test, saponins from other sources were analyzed. A saponin purified from a root extract of Gypsophila elegans M.Bieb. […] FIG. 63C).
The subject of a further data set is A431 (EGFR++) cells. In words: Saponin derivative titration in presence and absence of […] EGFdianthin, cell viability. In kind it is cell-based.
The next data set concerns A2058 (EGFR−) cells. The description is as above. In kind it is cell-based.
Data set [8] is described as follows: pH dependent hydrolysis of the hydrazone bond (HCl solution pH 3, MALDI-TOF-MS). The data set is classed as physicochemical. The settings on record: HCl solution at pH 3.
Data set [9] concerns HSP27 mRNA. Nature of the data set: HSP27 mRNA gene silencing analysis in SK-BR-3 cells. Conditions: in the presence of 4000 nM or 4829 nM SO1861-Ald-EMCH; read-out: IC50(SK-BR3) HSP27 gene silencing. In kind it is cell-based.
Excerpt: as §2

The mark [10] stands for this setting: 10 μg/ml SO1861 or SO1861-derivative + […] EGFdianthin.
The mark [11] stands for this setting: 10 μg/ml SO1861 or SO1861-derivative alone.

Read-outs that look alike come from different tables or passages of the source. [BNA] = bridged nucleic acid sugar (2',4'-BNA), type not further given; d = 2'-deoxy (DNA)

Consider `CC(=O)OC1C(C)OC(OC2C(C)OC(OC(=O)[C@]34CCC(C)(C)CC3C3=CCC5[C@@]6(C)CC[C@H](OC7OC(C(=O)O)C(O)C(OC8OCC(O)C(O)C8O)C7OC7OC(CO)C(O)C(O)C7O)[C@@](C)(/C=N/NC(=O)CCCCCN7C(=O)C=CC7=O)C6CC[C@@]5(C)[C@]3(C)C[C@H]4O)C(OC3OC(C)C(OC4OCC(O)C(OC5OC(CO)C(O)C(O)C5O)C4O)C(O)C3O)C2O)C(O)C1OC1OCC(O)C(O)C1O` (stereo partly shown) [SO1861-Ald-EMCH], for which the IC50 is 2 µM in [1]; 30000 nM in the data set with A431 cells (A-431, Table A6, saponin alone, read-out: IC50 nM (Toxicity)); 30000 nM with A431 cells (A-431, text, saponin alone, read-out: IC50 toxicity); greater than 100000 nM in the data set with HeLa cells [2] (Homo sapiens, HeLa, Table A5, saponin alone, read-out: IC50 nM (Toxicity)); greater than 100000 nM in the data set on HeLa cells [2] (Homo sapiens, HeLa, saponin alone, read-out: IC50 toxicity); greater than 1e+06 nM in the data set with human red blood cells (Table A5, read-out: IC50 nM (hemolysis)). Moreover, the IC50 with human red blood cells (Table A6, read-out: IC50 nM (hemolysis)) is greater than 1e+06 nM; in the data set with human red blood cells (read-out: IC50 hemolytic activity) it was greater than 1e+06 nM; in the data set with HeLa (EGFR+) cells (Homo sapiens, read-out: General toxicity (IC50 / highest concentration)), greater than 25 µM; with A431 (EGFR++) cells (Homo sapiens, A-431, read-out: Toxicity as single compound), greater than 25 µM; in the data set on A2058 (EGFR−) cells (Homo sapiens, read-out: Toxicity as single compound), greater than 25 µM. In data set [3], this molecule gave a CMC value greater than 800 µM. Moreover, the entries for the “Cell killing activity (+ or −)” value in the data set with HeLa cells [4] (setting [10]) and with HeLa cells [4] (setting [11]) were “+” and “−”, respectively. The “Cell viability after 72 h” value with HeLa cells [4] is listed as “reduced cell viability”. In addition, the “Cell killing activity of saponin alone” value in [5] and in data set [6] was “no cell killing activity” in each case. In addition, in the data set with HSP27 mRNA [7], the “HSP27 gene silencing activity alone” value is “no HSP27 gene silencing activity”. In data set [8], the “Hydrolysis of the hydrazone bond” value is recorded as “gets cleaved”.
`CC(=O)OC1C(C)OC(OC2C(C)OC(OC(=O)[C@]34CCC(C)(C)CC3C3=CCC5[C@@]6(C)CC[C@H](OC7OC(C(=O)O)C(O)C(OC8OCC(O)C(O)C8O)C7OC7OC(CO)C(O)C(O)C7O)[C@@](C)(C=O)C6CC[C@@]5(C)[C@]3(C)C[C@H]4O)C(OC3OC(C)C(OC4OCC(O)C(OC5OC(CO)C(O)C(O)C5O)C4O)C(O)C3O)C2O)C(O)C1OC1OCC(O)C(O)C1O` (stereo partly shown) [SO1861, reference compound]: the IC50 in the data set on HeLa cells [2] (saponin alone, read-out: IC50 toxicity) came out at 1000 nM. The same molecule gave a CMC value in data set [3] of 185 µM. Also, in data set [3] (Table A7, determined in PBS), the “CMC” value came to 185 ± 19 µM. Moreover, the “Cell killing activity (+ or −)” value is recorded as “+” in the data set with HeLa cells [4] (setting [10]) and “−” with HeLa cells [4] (setting [11]). Besides, the “Cell viability after 72 h” value in the data set with HeLa cells [4] is on record as roughly 0%. Besides, the “Cell killing activity of saponin alone” value in data set [5] and in data set [6] was “no cell killing activity” throughout. Besides, the “General toxicity (IC50 / highest concentration)” value with HeLa (EGFR+) cells (in absence of EGFdianthin) is recorded as “strong cell viability reduction”. Also, the “Toxicity as single compound” value with A431 (EGFR++) cells (A431, without EGFdianthin) is “strong cell viability reduction”; in the data set on A2058 (EGFR−) cells (without EGFdianthin), “strong cell viability reduction”.
As to “HSP27BNA: antisense BNA oligo against HSP27 mRNA, 5′-GGCacagccagtgGCG-3′ (antisense GGCACAGCCAGTGGCG; sugars from the 5' end [BNA]3 d10 [BNA]3, backbone and methylation of C not given here)”, in the data set with HSP27 mRNA [9], the IC50 stood at 0.002 µM.

For the origin of these results see patent US20230277612A1, “SAPONIN DERIVATIVES FOR USE IN MEDICINE” (priority 2020, published 2023).
